Experimental data published in patent US12018016B2, “Aryl sulfonyl (hydroxy) piperidines as CCR6 inhibitors” (CHEMOCENTRYX, INC., priority 2021, dated 2024).

What follows are compounds tested against T1, human CCR6 (Homo sapiens, UniProt P51684) (assay: Migration assay (chemotaxis, ChemoTX)). Conditions: hCCR6-transfected Ba/F3 cells in human serum, migration to recombinant human CCL20 10 nM, 37° C. 45 minutes; read-out: Potency (IC50 value in the migration assay).
T1 construct: expressed in transfected cells; host or cells: Ba/F3 cells (mouse pro-B line)
T1 sequence (P51684 1-374): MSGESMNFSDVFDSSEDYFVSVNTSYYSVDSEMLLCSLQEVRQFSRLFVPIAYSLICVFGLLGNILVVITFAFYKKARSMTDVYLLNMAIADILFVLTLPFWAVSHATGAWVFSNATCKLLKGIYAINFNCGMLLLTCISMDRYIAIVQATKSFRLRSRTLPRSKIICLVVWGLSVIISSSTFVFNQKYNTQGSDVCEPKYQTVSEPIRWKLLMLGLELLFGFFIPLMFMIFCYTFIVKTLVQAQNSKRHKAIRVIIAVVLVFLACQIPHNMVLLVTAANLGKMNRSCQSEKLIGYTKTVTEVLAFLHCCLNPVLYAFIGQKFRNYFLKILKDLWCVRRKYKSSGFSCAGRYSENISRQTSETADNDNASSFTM
Format: cell-based
Outline: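 Ba/F3 cells transfected with human CCR6 and butyrate-primed for 24 h were suspended at 4 million/ml in human serum with compound, serially diluted from a 1 μM final top concentration. Cells migrated through a 5-μm polycarbonate membrane toward 10 nM human CCL20 for 45 min at 37 °C. Migrated cells were quantified by CyQUANT fluorescence.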
Work on `CN(C)C1CCN(c2cc(-c3ccc(S(=O)(=O)N4CC[C@@H](Nc5ccc(C(F)(F)F)cn5)[C@@H](O)C4)cc3)ccn2)CC1` [Compound 143] yielded an IC50 of 1 to 10 nM. Compound `O=C1NCC[C@@H]1Nc1ccc(-c2ccc(S(=O)(=O)N3CC[C@@H](Nc4ccc(C(F)(F)F)cn4)[C@@H](O)C3)cc2)cn1` [Compound 170] has an IC50 of under 1 nM. With “4-(4-(((3S,4R)-3-hydroxy-4-((4-(trifluoromethyl)phenyl)amino)piperidin-1-yl)sulfonyl)phenyl)picolinamide [Compound 81]” the IC50 was under 1 nM. Work on `NC(=O)c1cc(-c2ccc(S(=O)(=O)N3CC[C@@H](Nc4ccc(C(F)(F)F)cn4)[C@@H](O)C3)cc2)cnn1` [Compound 198] yielded an IC50 of under 1 nM. Compound `O=S(=O)(c1ccc(-c2ccc3[nH]ncc3c2)cc1)N1CC[C@@H](Nc2ccc(C(F)(F)F)cn2)[C@@H](O)C1` [Example 23, (3S,4R)-1-((4-(1H-indazol-5-yl)phenyl)sulfonyl)-4-((5-(trifluoromethyl)pyridin-2-yl)amino)piperidin-3-ol] has an IC50 of under 1 nM. `Cc1cc(-c2ccc(S(=O)(=O)N3CC[C@@H](Nc4ccc(C(F)(F)F)cn4)[C@@H](O)C3)cc2)cc2c1C(=O)NC2` [Compound 78, 5-(4-(((3S,4R)-3-hydroxy-4-((5-(trifluoromethyl)pyridin-2-yl)amino)piperidin-1-yl)sulfonyl)phenyl)-7-methylisoindolin-1-one] gave an IC50 of under 1 nM. With `O=C1NCc2cc(-c3ccc(S(=O)(=O)N4CC[C@@H](Nc5ccc(C(F)(F)F)cn5)[C@@H](O)C4)cc3)ccc2N1` [Example 14, 6-(4-(((3S,4R)-3-hydroxy-4-((5-(trifluoromethyl)pyridin-2-yl)amino)piperidin-1-yl)sulfonyl)phenyl)-3,4-dihydroquinazolin-2(1H)-one] the IC50 was under 1 nM. `Cc1cnccc1-c1ccc(S(=O)(=O)N2CC[C@@H](Nc3ccc(C(F)(F)F)cn3)[C@@H](O)C2)cc1` [Compound 164] showed an IC50 of under 1 nM. For `CN(c1cc(-c2ccc(S(=O)(=O)N3CC[C@@H](Nc4ccc(C(F)(F)F)cn4)[C@@H](O)C3)cc2)ccn1)C1CCC1` [Compound 130], the IC50 was under 1 nM. In the case of `CN(C)C(=O)c1cc(-c2ccc(S(=O)(=O)N3CC[C@@H](Nc4ccc(C(F)(F)F)cn4)[C@@H](O)C3)cc2)ccn1` [Example 40, 4-(4-(((3S,4R)-3-Hydroxy-4-((5-(trifluoromethyl)pyridin-2-yl)amino)piperidin-1-yl)sulfonyl)phenyl)-N,N-dimethylpicolinamide], the IC50 is reported as 1 to 10 nM. Compound `Cc1cnc(C(N)=O)c(C)c1-c1ccc(S(=O)(=O)N2CC[C@@H](Nc3ccc(C(F)(F)F)cn3)[C@@H](O)C2)cc1` [Compound 204] has an IC50 of under 1 nM. `N#Cc1cnccc1-c1ccc(S(=O)(=O)N2CC[C@@H](Nc3ccc(C(F)(F)F)cn3)[C@@H](O)C2)cc1` [Compound 149] gave an IC50 of 1 to 10 nM. `CN(C)CCN(C)c1ccc(-c2ccc(S(=O)(=O)N3CC[C@@H](Nc4ccc(C(F)(F)F)cn4)[C@@H](O)C3)cc2)cn1` [Compound 101] showed an IC50 of 10 to 1000 nM. In the case of `COc1cc(-c2ccc(S(=O)(=O)N3CC[C@@H](Nc4ccc(C(F)(F)F)cn4)[C@@H](O)C3)cc2)cc2cn[nH]c12` [Example 21, (3S,4R)-1-((4-(7-methoxy-1H-indazol-5-yl)phenyl)sulfonyl)-4-((5-(trifluoromethyl)pyridin-2-yl)amino)piperidin-3-ol], the IC50 is reported as under 1 nM. `O=C1Cc2ccc(-c3ccc(S(=O)(=O)N4CC[C@@H](Nc5ccc(C(F)(F)F)cn5)[C@@H](O)C4)cc3)cc2N1` [Example 9, 6-(4-(((3S,4R)-3-hydroxy-4-((5-(trifluoromethyl)pyridin-2-yl)amino)piperidin-1-yl)sulfonyl)phenyl)indolin-2-one] gave an IC50 of under 1 nM. `O=C1CN(c2cc(-c3ccc(S(=O)(=O)N4CC[C@@H](Nc5ccc(C(F)(F)F)cn5)[C@@H](O)C4)cc3)ccn2)CCN1` [Compound 173] gave an IC50 of under 1 nM. With `Cc1cc(C(F)(F)F)cnc1N[C@@H]1CCN(S(=O)(=O)c2ccc(-c3ccnc(C(N)=O)c3)cc2)C[C@@H]1O` [Compound 82, 4-[4-[[(3S,4R)-3-hydroxy-4-[[3-methyl-5-(trifluoromethyl)-2-pyridyl]amino]-1-piperidyl]sulfonyl]phenyl]pyridine-2-carboxamide] the IC50 was under 1 nM. Work on `COc1cc(-c2ccc(S(=O)(=O)N3CC[C@@H](Nc4ccc(C(F)(F)F)cn4)[C@@H](O)C3)cc2)cc(C(N)=O)n1` [Example 44, 4-(4-(((3S,4R)-3-Hydroxy-4-((5-(trifluoromethyl)pyridin-2-yl)amino)piperidin-1-yl)sulfonyl)phenyl)-6-methoxypicolinamide] yielded an IC50 of under 1 nM. Work on `Cc1c(-c2ccc(S(=O)(=O)N3CC[C@@H](Nc4ccc(C(F)(F)F)cn4)[C@@H](O)C3)cc2)cnc2[nH]ccc12` [Example 60, (3S,4R)-1-((4-(4-methyl-1H-pyrrolo[2,3-b]pyridin-5-yl)phenyl)sulfonyl)-4-((5-(trifluoromethyl)pyridin-2-yl)amino)piperidin-3-ol] yielded an IC50 of under 1 nM. Work on `Cc1nc2[nH]ccc2c(C)c1-c1ccc(S(=O)(=O)N2CC[C@@H](Nc3ccc(C(F)(F)F)cn3)[C@@H](O)C2)cc1` [Example 45, (3S,4R)-1-((4-(4,6-dimethyl-1H-pyrrolo[2,3-b]pyridin-5-yl)phenyl)sulfonyl)-4-((5-(trifluoromethyl)pyridin-2-yl)amino)piperidin-3-ol] yielded an IC50 of under 1 nM. In the case of `O=S(=O)(c1ccc(-c2ccnc(N3CC4(COC4)C3)c2)cc1)N1CC[C@@H](Nc2ccc(C(F)(F)F)cn2)[C@@H](O)C1` [Compound 135], the IC50 is reported as under 1 nM. For `CN(C)CCN(C)c1cc(-c2ccc(S(=O)(=O)N3CC[C@@H](Nc4ccc(C(F)(F)F)cn4)[C@@H](O)C3)cc2)ccn1` [Compound 138], the IC50 was under 1 nM. Work on `O=S(=O)(c1ccc(-c2cnc3[nH]ccc3c2C(F)(F)F)cc1)N1CC[C@@H](Nc2ccc(C(F)(F)F)cn2)[C@@H](O)C1` [Example 22, (3S,4R)-1-((4-(4-(trifluoromethyl)-1H-pyrrolo[2,3-b]pyridin-5-yl)phenyl)sulfonyl)-4-((5-(trifluoromethyl)pyridin-2-yl)amino)piperidin-3-ol] yielded an IC50 of under 1 nM. Work on `NC(=O)c1cc(-c2ccc(S(=O)(=O)N3CC[C@@H](Nc4ccc(C(F)(F)F)cn4)[C@@H](O)C3)cc2)cnc1N` [Example 53, 2-Amino-5-(4-(((3S,4R)-3-hydroxy-4-((5-(trifluoromethyl)pyridin-2-yl)amino)piperidin-1-yl)sulfonyl)phenyl)nicotinamide] yielded an IC50 of under 1 nM. `O=C1CNCCN1c1cc(-c2ccc(S(=O)(=O)N3CC[C@@H](Nc4ccc(C(F)(F)F)cn4)[C@@H](O)C3)cc2)ccn1` [Compound 88, 1-(4-(4-(((3S,4R)-3-hydroxy-4-((5-(trifluoromethyl)pyridin-2-yl)amino)piperidin-1-yl)sulfonyl)phenyl)pyridin-2-yl)piperazin-2-one] showed an IC50 of 1 to 10 nM. Work on `O=S(=O)(c1ccc(-c2cccnc2)cc1)N1CC[C@@H](Nc2ccc(C(F)(F)F)cn2)[C@@H](O)C1` [Compound 162] yielded an IC50 of under 1 nM. Work on `Cc1nnc(-c2cc(-c3ccc(S(=O)(=O)N4CC[C@@H](Nc5ncc(C(F)(F)F)cc5C)[C@@H](O)C4)cc3)ccn2)o1` [Compound 84, (3S,4R)-1-[4-[2-(5-methyl-1,3,4-oxadiazol-2-yl)-4-pyridyl]phenyl]sulfonyl-4-[[3-methyl-5-(trifluoromethyl)-2-pyridyl]amino]piperidin-3-ol] yielded an IC50 of under 1 nM. With `O=S(=O)(c1ccc(-c2cnc3c(O)nccc3c2)cc1)N1CC[C@@H](Nc2ccc(C(F)(F)F)cn2)[C@@H](O)C1` [Compound 190] the IC50 was under 1 nM. In the case of `O=S(=O)(c1ccc(-c2ccnc(N3CCCC3)c2)cc1)N1CC[C@@H](Nc2ccc(C(F)(F)F)cn2)[C@@H](O)C1` [Compound 90, (3S,4R)-1-((4-(2-(pyrrolidin-1-yl)pyridin-4-yl)phenyl)sulfonyl)-4-((5-(trifluoromethyl)pyridin-2-yl)amino)piperidin-3-ol], the IC50 is reported as under 1 nM. For `O=S(=O)(c1ccc(-c2ccc(NC3CCC3)nc2)cc1)N1CC[C@@H](Nc2ccc(C(F)(F)F)cn2)[C@@H](O)C1` [Compound 103], the IC50 was 1 to 10 nM. `COc1cc(-c2ccc(S(=O)(=O)N3CC[C@@H](Nc4ccc(C(F)(F)F)cn4)[C@@H](O)C3)cc2)cc(-c2nnc(C)o2)n1` [Compound 214] was tested, and the IC50 was under 1 nM. Compound `NC(=O)c1cccc(-c2ccc(S(=O)(=O)N3CC[C@@H](Nc4ccc(C(F)(F)F)cn4)[C@@H](O)C3)cc2)n1` [Example 7, 6-(4-(((3S,4R)-3-Hydroxy-4-((5-(trifluoromethyl)pyridin-2-yl)amino)piperidin-1-yl)sulfonyl)phenyl)picolinamide] has an IC50 of under 1 nM. Compound `NC(=O)c1ccnc(-c2ccc(S(=O)(=O)N3CC[C@@H](Nc4ccc(C(F)(F)F)cn4)[C@@H](O)C3)cc2)c1` [Example 18, 2-(4-(((3S,4R)-3-Hydroxy-4-((5-(trifluoromethyl)pyridin-2-yl)amino)piperidin-1-yl)sulfonyl)phenyl)isonicotinamide] has an IC50 of 1 to 10 nM. `NC(=O)c1cc(-c2ccc(S(=O)(=O)N3CC[C@@H](Nc4ncc(C(F)(F)F)cn4)[C@@H](O)C3)cc2)ccn1` [Compound 86, 4-(4-(((3S,4R)-3-hydroxy-4-((5-(trifluoromethyl)pyrimidin-2-yl)amino)piperidin-1-yl)sulfonyl)phenyl)picolinamide] was tested, and the IC50 was 10 to 1000 nM. In the case of `O=S(=O)(c1ccc(-c2ccnc(N3CC[C@@H](O)C3)c2)cc1)N1CC[C@@H](Nc2ccc(C(F)(F)F)cn2)[C@@H](O)C1` [Compound 134], the IC50 is reported as under 1 nM.
